± gives the expanded uncertainty stated by the source.
Assay: activity coefficient (dimensionless); of the first substance listed, at infinite dilution; xn = mol fraction of the nth substance listed
Conditions: Liquid, Chromatography, x1 = 0

C=CCCCCC [1-heptene] + CCCCn1cc[n+](C)c1.N#C[S-]
Conditions	activity coefficient
298.15 K	81.1 ± 5.6
308.15 K	73.7 ± 5.1
318.15 K	68.5 ± 4.7
328.15 K	62.3 ± 4.3
338.15 K	58 ± 4
348.15 K	54.8 ± 3.8
358.15 K	52.4 ± 3.6

From the NIST ThermoML archive (doi:10.1016/j.jct.2008.12.018)
